# From patent US12636446B2, “Devices for evaporation and inhalation of nicotine” (Emplicure AB, priority 2016, dated 2026)
# Structures can show the parent of a compound that is named as a salt. Where two headings read alike, the source gives them in different places.
# How the values were obtained:
# [1] = calcium sulphate coins, solution 50 μl, 5 mg/ml dispensed; oven approximately 250° C., 0 to 15 minutes
# Method: (§1) Calcium sulphate alpha hemihydrate (CaS) was obtained from Bo Ehrlander AB (Sweden). Clonidine hydrochloride was obtained from PCAS (Finland). Shaped silicon rubbers were used as molds for coins (diameter: 12 mm, thickness: 2 mm). The calcium sulphate was mixed with deionised water (Liquid/Powder ratio of 0.4 (w/w)) to form a homogenous paste, which was used to fill the rubber molds. When the paste was applied, the molds were set to dry for at least 12 h under ambient conditions.
# Clonidine hydrochloride solution (50 μl, 5 mg/ml) was dispensed onto the calcium sulphate coins. When the solution was applied, the coins were set to dry for at least 12 h under ambient conditions.
# (§2) The temperature was set to approximately 250° C.
# (§3) Each coin was weighed and immersed into a beaker containing 200 ml of deionised water. […] The sample was characterized by Shimadzu LC-2030 (Germany) HPLC system with a Genesis C18 analytical column 4 μm (100×2.1 mm i.d.) with a mobile phase of acetonitrile/phosphoric acid, pH 3 (11/89). The wavelength was set to 220 nm.
# The reference samples represent the amount of clonidine hydrochloride that was loaded before heat treatment.
# [2] = Excerpt: as §1, with “with powder of Clonidine hydrochloride (0.07 g Clonidine hydrochloride/g calcium sulphate) and” for “with”, “molds. Once” for “molds. When”, “paste had been” for “paste was”
# The oven temperature was set to approximately 250° C.
# as §3
# The reference samples represent the amount of clonidine hydrochloride mg/g calcium sulphate that was loaded before heat treatment.
# [3] = Oven heating of calcium sulphate coins pre-loaded with sumatriptan succinate; detection by UV; type: physicochemical; conditions: 0.07 g sumatriptan succinate/g calcium sulphate, oven approximately 250° C.
# Method: as §2
# [4] = Oven heating of Al2O3 rods soaked in sumatriptan succinate solution; detection by UV; conditions: Al2O3 rods soaked in 20 mg/ml solution for 24 hours
# [5] = calcium sulphate rods soaked 24 hours in pure nicotine; heated 5*10 sec., maximum temperature 315° C.
# Excerpt: Aluminium oxide ceramic rods and calcium sulphate rods were obtained as described in Example 3. Nicotine and nicotine solutions were supplied and applied, and nicotine levels were detected as described in Example 3.
# Samples were heated using a prototype e-cigarette device (X-Cube II, Smoke) obtained from Devex Mekatronik AB (Sweden). The device is derived from the commercially available e-cigarette X-Cube.
# The sample in the device was heated up by a coil that is wrapped around the sample.
# The end of the device was connected to a vial via a silicon hose. The vial contained 1 ml of deionised water. To simulate smoking a rod was put into the device and puffing was performed. Puffing involves a sequence of 5 puffs that are each 10 seconds long. After puffing, the hose was removed and flushed with the water. The water was analysed for concentration of nicotine.
# [6] = for amount of nicotine detected in the reference sample / nicotine detected in coins after heating: pure nicotine (20 mg) dispensed; for amount of nicotine detected in the reference sample: not heated
# [7] = Liquid/Powder ratio 0.4 (w/w)
# Method: as §1, with “(Sweden).” for “(Sweden). Clonidine hydrochloride was obtained from PCAS (Finland).”, “a nicotine solution with a concentration of 5 or 20 mg/ml of nicotine” for “deionised water”, “filled in” for “used to fill”, “Once” for “When”
# The temperature was set to approximately 200° C.
# The sample was characterized by UV-spectrophotometer at a wavelength of 219 nm. The amount nicotine in the samples were then calculated.
# [8] = calcium sulphate coins, nicotine solution 50 μl, 18 mg/ml dispensed; heated about 1 minute or about 5 minutes
# Excerpt: Calcium sulphate coins were obtained as described in Example 3. For the indirect induction test a magnet was molded into the coin. Nicotine and nicotine solutions were supplied and applied, and nicotine levels were detected as described in Example 3.
# Metal plate for induction cooker was obtained from Haneström (Sweden). Induction cooker Wilfa ICP-2000 was obtained from Media Markt (Sweden). Magnets (10*1 mm, Samarium Cobalt magnets, 0.4 kg pull) were obtained from first4magnets (UK). IR-thermometer (MS6520A) was obtained from Mastech (USA).
# Heat treatment by indirect induction was carried out by placing a metal plate onto the induction cooker. The ceramic coins containing a magnet was applied onto the metal plate and heated on maximum effect (exact temperature was not measured; see FIG. 10).
# [9] = calcium sulphate rods soaked in pure nicotine, oven approximately 200° C.
smiles,measurement,setting,value
Clc1cccc(Cl)c1N=C1NCCN1 [clonidine hydrochloride],amount of clonidine hydrochloride present in the coins during heating,[1],decreased significantly
same,amount of clonidine hydrochloride contained in coin,"[2]; calcium sulphate coins pre-loaded, 0.07 g clonidine hydrochloride/g calcium sulphate, coin approximately 0.3 g",approximately 17 mg
same,time within which almost all of the clonidine hydrochloride was released when heated,"[2]; pre-loaded calcium sulphate coins, oven approximately 250° C.",≤ 15 min
CNS(=O)(=O)Cc1ccc2[nH]cc(CCN(C)C)c2c1 [sumatriptan succinate],time within which almost all of the Sumatriptan succinate was released when heated,[3],≤ 15 min
same,amount of sumatriptan succinate absorbed by rod,[4],approximately 1 mg sumatriptan succinate/rod
CN1CCCC1c1cccnc1 (stereo not drawn) [nicotine],nicotine release on heat treatment in e-cigarette device,[5],a heat treatment in the device will result in a nicotine release
same,time within which almost all of the nicotine was released when heated,"[6]; aluminium oxide rods soaked in 6 mg/ml nicotine solution (diluted e-juice) 24 hours, oven approximately 200° C.",5 to 10 min
same,amount of nicotine absorbed by rod,[6]; aluminium oxide rods soaked in 6 mg/ml nicotine solution for 24 hours,approximately 135 μg nicotine/rod
same,amount of nicotine detected in the reference sample,[6]; calcium sulphate coins,lower than 20 mg
same,nicotine detected in coins after heating,"[6]; calcium sulphate coins, oven approximately 200° C.",lower release of nicotine was detected after heating
same,amount of nicotine absorbed by rod,[6]; calcium sulphate rods soaked in pure nicotine for 24 hours,approximately 20 mg nicotine/rod
same,nicotine release during heating,[6]; [9],Most of the nicotine was released
same,"nicotine release, 5 min of heating compared to 1 min of heating",[6]; [9],a higher amount was released during 5 min of heating compared to 1 min of heating
same,amount of nicotine detected in the reference sample,[6]; geopolymer coins,about 16 mg
same,nicotine detected in coins after heating,"[6]; geopolymer coins, oven approximately 200° C.",lower release of nicotine was detected after heating
same,amount of nicotine contained in coin,[7]; calcium sulphate coins mixed with 5 mg/ml nicotine solution,approximately 180 μg
same,amount of nicotine contained in coin,[7]; calcium sulphate coins mixed with 20 mg/ml nicotine solution,~390 µg
same,"nicotine release on induction heating, unheated plate",[8],Most of the nicotine was released within the first minute
